# Measured values as given in patent publication EP4796548A1, “PROTEOLYSIS-TARGETING CHIMERA COMPOUND FOR DEGRADING IRAK4 AND USE THEREOF” (Dovetree Medicines Unus, Inc., priority 2023, dated 2025).
# Columns and labels:
# IRAK4 [1] = biological target: T1, IRAK4 (Homo sapiens, UniProt Q9NWZ3); assay: detection of proteolysis by Hibit fluorescence (IRAK4 degradation); type: cell-based; set-up: host or cells: HEK293T cells (ATCC); conditions: for Dmax: HEK-293T; for DC50: Hibit, HEK293T cells transfected with HiBiT-tagged IRAK4 plasmid, 24 hours incubation
# T1 sequence (Q9NWZ3 1-460): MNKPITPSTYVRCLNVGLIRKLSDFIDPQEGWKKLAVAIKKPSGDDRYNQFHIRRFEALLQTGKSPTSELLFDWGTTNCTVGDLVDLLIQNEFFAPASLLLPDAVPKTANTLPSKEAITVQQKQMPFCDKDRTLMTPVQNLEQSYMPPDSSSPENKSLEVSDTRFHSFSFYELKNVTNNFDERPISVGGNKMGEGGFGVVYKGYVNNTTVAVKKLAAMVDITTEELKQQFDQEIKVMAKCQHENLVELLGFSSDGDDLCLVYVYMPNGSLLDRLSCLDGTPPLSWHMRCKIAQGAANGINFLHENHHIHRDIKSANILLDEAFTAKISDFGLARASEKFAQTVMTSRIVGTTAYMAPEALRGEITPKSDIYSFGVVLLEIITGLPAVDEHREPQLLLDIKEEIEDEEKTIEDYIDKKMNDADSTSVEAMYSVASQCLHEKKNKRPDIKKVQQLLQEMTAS
# Procedure: Using the HiBiT tag technology, the sequence containing the HiBiT tag (Seq. ID. No. 1, 5'-[…]-3', Beijing Tsingke Biotech Co., Ltd.) was ligated to the IRAK4 plasmid (Seq. ID. No. 2, 5'-Eco[…] NOT1-3', Beijing Tsingke Biotech Co., Ltd.). The plasmid was transfected into HEK293T cells (ATCC), and the HiBiT […] was measured to characterize the compound-induced IRAK4 degradation. 300,000 HEK293T cells in 1 mL of DMEM medium (Gbico, 11965-092) were seeded into a 6-well plate (Corning 3516) , followed by being placed overnight in a constant incubator at 37°C, 5% CO2. 3 µL X-tremeGENE™ 9 DNA Transfection Reagent (Roche #06365787001), and 1 µg IRAK4 plasmid were added to 200 µL Opti-MEM (Gibico 31985062), followed by gentle mixing. The 6-well plate that had been incubated overnight was taken out and allowed to stand at room temperature for 15 minutes, followed by dropwise addition to the 6-well plate. After transient transfection for 6 hours, cells were digested with trypsin (Gibco, 25200-056) for one minute, followed by centrifugation at 1000 rpm for 3 minutes. 5000 HEK293T cells in 40 µL DMEM medium were seeded into a 384-well plate (Corning 3765), followed by being placed overnight in a constant incubator at 37°C, 5% CO2. Then, 40 nL of the compound was added to the 384-well plate using an Echo 655 Liquid Handler, with a highest final concentration of 10 µM, and a 1:3 serial dilution to give a total of 10 concentrations, followed by incubation at 37°C, 5% CO2 for 24 hours. The 384-well plate was removed and equilibrated to room temperature. 40 µL Nano-Glo® HiBiT Lytic Detection System (Promega N3030) was added to each well. After incubation at room temperature for 15 minutes, the fluorescence values were recorded using EnVision Xcite Multilabel Reader (PerkinElmer 2105-0020). Data were fitted and analyzed using Prism 9.3 software with non-linear regression (non-liner inhibitor(Bell-shaped)) and a 4 parameter, with parameters as follows: • Span1=Plateau1[…] • Span2=Plateau2-Dip Section1 = Span1/(1+10^(∧)((LogEC50_1−X)*nH1)) [formula] Section2 = Span2/(1+10^(∧)((X−LogEC50_2)*nH2)) [formula]
# (§1) The equation is as follows: Y=Dip+Section1+Section2.
# IRAK4 [2] = biological target: T1, IRAK4; assay: cell-based; type: cell-based; set-up: endogenous in cells; host or cells: THP-1 cells; conditions: for Dmax: THP-1; for DC50: WB, THP-1 cells, 24 hours incubation
# Procedure: The degradation level of IRAK4 in THP-1 cells was detected by Western Blot technique. 1,000,000 THP-1 cells were seeded in a 12-well plate (Corning 3513) with 1 mL per well. A stock solution of the compound in 1000× gradient dilution was prepared, with a maximum concentration of 300 µM, and serially diluted with DMSO in 1:3, for a total of 9 doses. The compound in 1000× gradient dilution was added to the 12-well plate with 1 µL per well. After incubation under a condition of 37°C, 5% CO2 for 24 hours, the cells were collected into a 2 mL centrifuge tube, and centrifuged at 5,000 rpm for 5 minutes. The supernatant was discarded. 100 µL RIPA lysis solution (Beyotime, P0013C) was added. After mixing well, the cells were lysed on ice for 10 min, and centrifuged at 14,000 rpm at 4°C for 10 min. The supernatant was collected. Protein content was determined using BCA (Solarbio, PC0020-10*50T). 75 µL of the supernatant was taken, and 25 µL NuPAGE LDS Sample Buffer (4X) (Thermo B0007) (with 5% β-mercaptoethanol added before use) was added to each tube to prepare samples, followed by heating in a metal bath at 100°C for 5 min. 20 µL was loaded into a 4-12% Bis-Tris gel (Invitrogen, WG1402BOX) to prepare 1x NuPAGE™ MOPS buffer (Invitrogen, NP0001). The electrophoresis apparatus was set to a constant voltage of 120V for 1.5 hours. 1x NuPAGE™ MOPS SDS electrophoresis buffer (20X) (Invitrogen, NP0001) was prepared. The electrophoresis apparatus was set to a constant current of 300 mA for 100 minutes. The protein was transferred to a PVDF membrane (Millipore, IPVH00010). The PVDF membrane was blocked with a blocking solution (Licor, 927-60001) at room temperature for 1 h, IRAK4 antibody (Abcam ab32511) was diluted 1:1,000, GAPDH (Abcam ab8245) was diluted 1:3,000, and then the antibody was incubated overnight at 4°C. The next day, the membrane was washed three times with 1× TBST (Elabscience E-BC-R335), for 5 min each time. Secondary antibodies IR Dye 800 CW Goat anti-rabbit (Licor #926-32211) and IRDye® 680RD Goat anti-Mouse (Licor #926-68070) were diluted 1:10,000, followed by incubation in the dark at room temperature for 1 h. The membrane was washed three times with TBST, for 5 min each time. Using Odyssey imaging system Li-cor Odyssey Clx, signals were detected and data were analyzed. Data were analyzed using GraphPad (Prism 9.3) software with non-linear regression (non-liner inhibitor(Bell-shaped)) and a 4 parameter, with parameters as follows: • Span 1 =Plateau1-Dip • Span2=Plateau2-Dip Section1 = Span1/(1+10^(∧)((LogEC50_1−X)*nH1)) [formula] Section2 = Span2/(1+10^(∧)((X−LogEC50_2)*nH2)) [formula]
# as §1
DC50 (IRAK4 [2]; read-out: DC50),SMILES,Dmax (IRAK4 [1]),DC50 (IRAK4 [1]),Dmax (IRAK4 [2]),DC50 (IRAK4 [2])
–,Cn1c(=O)n(C2CCC(=O)NC2=O)c2cccc(N3CCC4(CCN(C[C@H]5CC[C@H](n6nc(C(F)F)c7cc(-c8ccc9cc(C(N)=O)cnn89)ncc76)CC5)CC4)CC3)c21 (some centres unmarked) [Compound 1],> 80%,< 0.5 nM,> 70%,< 10 nM
–,Cn1c(=O)n(C2CCC(=O)NC2=O)c2cccc(N3CCC(N4CCN(C[C@H]5CC[C@H](n6nc(C(F)F)c7cc(-c8ccc9cc(C(N)=O)cnn89)ncc76)CC5)CC4)CC3)c21 (some centres unmarked) [Compound 2],> 80%,< 0.5 nM,> 70%,< 10 nM
–,Cn1c(=O)n(C2CCC(=O)NC2=O)c2cccc(N3CCC4(CCN(C[C@H]5CC[C@H](n6nc(C(F)F)c7cc(-c8ccc9cc(C(N)=O)cnn89)ncc76)CC5)CC4)C3)c21 (some centres unmarked) [Compound 3],70 to 80%,< 0.5 nM,–,–
–,Cn1c(=O)n(C2CCC(=O)NC2=O)c2cccc(N3CCN(C[C@H]4CC[C@H](n5nc(C(F)F)c6cc(-c7ccc8cc(C(N)=O)cnn78)ncc65)CC4)CC3)c21 (some centres unmarked) [Compound 4],< 60%,1 to 5 nM,–,–
–,Cn1c(=O)n(C2CCC(=O)NC2=O)c2cccc(N3CCN(C4CCN(C[C@H]5CC[C@H](n6nc(C(F)F)c7cc(-c8ccc9cc(C(N)=O)cnn89)ncc76)CC5)CC4)CC3)c21 (some centres unmarked) [Compound 5],> 80%,< 0.5 nM,60 to 70%,< 10 nM
–,Cn1c(=O)n(C2CCC(=O)NC2=O)c2cccc(N3CCC4(CCN(C[C@H]5CC[C@H](n6nc(C(F)F)c7cc(-c8ccc9cc(C(N)=O)cnn89)ncc76)CC5)C4)CC3)c21 (some centres unmarked) [Compound 6],> 80%,< 0.5 nM,> 70%,< 10 nM
–,Cn1c(=O)n(C2CCC(=O)NC2=O)c2cccc(N[C@H]3CC[C@H](N(C)C[C@H]4CC[C@H](n5nc(C(F)F)c6cc(-c7ccc8cc(C(N)=O)cnn78)ncc65)CC4)CC3)c21 (some centres unmarked) [Compound 7],60 to 70%,< 0.5 nM,–,–
–,Cn1c(=O)n(C2CCC(=O)NC2=O)c2cccc(C#CCOC3CCN(C[C@H]4CC[C@H](n5nc(C(F)F)c6cc(-c7ccc8cc(C(N)=O)cnn78)ncc65)CC4)CC3)c21 (some centres unmarked) [Compound 8],70 to 80%,< 0.5 nM,–,–
> 30 nM,C[C@H]1CN(c2cccc3c2n(C)c(=O)n3C2CCC(=O)NC2=O)CCN1C[C@H]1CC[C@H](n2nc(C(F)F)c3cc(-c4ccc5cc(C(N)=O)cnn45)ncc32)CC1 (some centres unmarked) [Compound 9],–,–,–,–
–,Cn1nc(C2CCC(=O)NC2=O)c2cccc(-c3cnn(C4CCN(C[C@H]5CC[C@H](n6nc(C(F)F)c7cc(-c8ccc9cc(C(N)=O)cnn89)ncc76)CC5)CC4)c3)c21 (some centres unmarked) [Compound 10],–,–,> 70%,< 10 nM
–,Cn1c(=O)n(C2CCC(=O)NC2=O)c2cccc(-c3cnn(C4CCN(C[C@H]5CC[C@H](n6nc(C(F)F)c7cc(-c8ccc9cc(C(N)=O)cnn89)ncc76)CC5)CC4)c3)c21 (some centres unmarked) [Compound 11],–,–,< 60%,> 30 nM
–,C[C@@H]1CN(C2CCN(c3cccc4c3n(C)c(=O)n4C3CCC(=O)NC3=O)CC2)CCN1C[C@H]1CC[C@H](n2nc(C(F)F)c3cc(-c4ccc5cc(C(N)=O)cnn45)ncc32)CC1 (some centres unmarked) [Compound 12],–,–,60 to 70%,> 30 nM
–,C[C@H]1CN(C2CCN(c3cccc4c3n(C)c(=O)n4C3CCC(=O)NC3=O)CC2)CCN1C[C@H]1CC[C@H](n2nc(C(F)F)c3cc(-c4ccc5cc(C(N)=O)cnn45)ncc32)CC1 (some centres unmarked) [Compound 13],–,–,> 70%,> 30 nM
–,C[C@@H]1CC2(CCN(c3cccc4c3n(C)c(=O)n4C3CCC(=O)NC3=O)CC2)CN1C[C@H]1CC[C@H](n2nc(C(F)F)c3cc(-c4ccc5cc(C(N)=O)cnn45)ncc32)CC1 (some centres unmarked) [Compound 17],–,–,> 70%,> 30 nM
–,Cn1nc(C2CCC(=O)NC2=O)c2cccc(N3CCC(N4CCN(C[C@H]5CC[C@H](n6nc(C(F)F)c7cc(-c8ccc9cc(C(N)=O)cnn89)ncc76)CC5)CC4)CC3)c21 (some centres unmarked) [Compound 19],–,–,> 70%,< 10 nM
–,Cn1nc(C2CCC(=O)NC2=O)c2cccc(N3CCC4(CCN(C[C@H]5CC[C@H](n6nc(C(F)F)c7cc(-c8ccc9cc(C(N)=O)cnn89)ncc76)CC5)C4)CC3)c21 (some centres unmarked) [Compound 20],–,–,< 60%,10 to 30 nM
–,C[C@H]1CN(C[C@H]2CC[C@H](n3nc(C(F)F)c4cc(-c5ccc6cc(C(N)=O)cnn56)ncc43)CC2)CCN1C1CCN(c2cccc3c2n(C)c(=O)n3C2CCC(=O)NC2=O)CC1 (some centres unmarked) [Compound 22],–,–,< 60%,> 30 nM
